Measurements as given in US20210078958A1, “QUINAZOLINE DERIVATIVE AND USE THEREOF” (MEDSHINE DISCOVERY INC., priority 2017, published 2021).

Assays:
NCI-N87 cell = test: inhibitory activity on cell proliferation (Cell-Titer-Glo), NCI-N87; format: cell-based; details: Homo sapiens, NCI-N87, 72 h; incubation for 3 days, Cell-Titer-Glo
Description: Purpose of the assay: to detect the inhibitory activity of the test compounds on cell proliferation.
Principle of the assay: the luciferase in a Cell-Titer-Glo reagent produces oxidized luciferin with luciferin, oxygen and ATP as reaction substrates, and releases energy in the form of light. Since the luciferase reaction requires ATP, the total amount of light generated by the reaction is proportional to the total amount of ATP that reflects cell viability.
Cell Titer-Glo cell viability assay kit with luminescence (Promega #G7573)
According to the schematic diagram of the cell seed plate, cells were seeded in a 384- or 96-well plate at a density of 1000 cells per well and 25 μL per well, and 25 μL of PBS was added to the wells near edge of the place where no cells were seeded.
(1) The stock solution of the compounds has a concentration of 10 mM, and the compounds were diluted with DMSO to an initial concentration of 4 mM. The compounds were added to the plate with stock solution of compounds, 9 μL per well.
(2) The compounds were diluted with an ECHO liquid workstation, where 125 nL of compounds were added to each well of the cell plate, 125 nL of DMSO was added to each of the cell well in columns 2 and 23, and 125 nL of DMSO was added to each PBS well in columns 1 and 24.
2.3 After addition of the compounds, the cell plate was centrifuged at 1000 rpm for 1 min, and then placed in a 37° C., 5% CO2 incubator for incubation for 3 days.
The cell plate was taken out from the incubator and equilibrated at room temperature for 30 minutes. 25 μL of Cell-Titer-Glo reagent was added to each well, shaken for one minute to allow well mixed, and centrifuged at 1000 rpm for 1 minute. After 10 minutes, the plate was read on PerkinElmer Envision, and the […] reading time was set to 0.2 second.

[1] = test system: subcutaneous xenograft tumor of human gastric cancer NCI-N87 cells; test: Assay Example 4: in vivo pharmacodynamics, NCI-N87 xenograft; set-up: species or system BALB/c nude mouse; details: for Tumor volume (mm3) (Day 28): NCI-N87 xenograft, Mean + SEM; for T/C (%) / TGI (%): day 28
Procedure: Purpose of the assay: to evaluate the in vivo efficacy of test compounds disclosed herein on subcutaneous xenograft tumor of human gastric cancer NCI-N87 cells in a BALB/c nude mouse model.
Animals of the assay: female BALB/c nude mice, 6-8 weeks old, weighted 18-22 grams; supplier: Shanghai Ling Chang Biotechnology Co., Ltd.
Human gastric cancer NCI-N87 cells were cultured in monolayer in vitro. The culture conditions were RPMI-1640 medium plus 10% fetal bovine serum, 100 U/mL penicillin, 100 U/mL streptomycin and 2 mM glutamine, 37° C., 5% CO2. The passaging was performed by conventional digestion with trypsin-EDTA twice a week. When the cell saturation was 80%-90%, the cells were collected, counted and inoculated.
0.2 mL (10×10^6) of NCI-N87 cells (PBS+Matrigel, 1:1) were inoculated subcutaneously on the right back of each mouse. When the average tumor volume reached 158 mm^3, administration to each group was started.
The test compounds were formulated into a 0.04 mg/mL and 0.08 mg/mL clear solution in and the solvents of 10% NMP (N-methylpyrrolidone)+10% ethylene glycol stearate+80% water.
The assay index is to investigate whether tumor growth is inhibited, delayed or cured. Tumor diameter was measured twice a week with a vernier caliper. The calculation formula of tumor volume is: V=0.5a×b^2, wherein a and b represent the long and short diameters of tumor, respectively.
The antitumor efficacy of the compounds were evaluated by TGI (%) or tumor proliferation rate T/C (%). TGI (%) reflects the tumor growth inhibition rate. TGI (%) is calculated as follows: TGI (%)=[1−(average tumor volume at the end of administration for a certain treatment group−average tumor volume at the beginning of administration for this treatment group)/(average tumor volume at the end of treatment for a solvent control group−average tumor volume at the beginning of administration for this solvent control group)]×100%.
Tumor proliferation rate T/C (%): the calculation formula is as follows: T/C (%)=average tumor volume at the end of administration for a certain treatment group/average tumor volume at the end of treatment for the solvent control group×100%.
Statistical analysis included the mean and standard error (SEM) of tumor volume at each time point in each group (See Table 5-1 for specific data). […] The comparison between two groups was analyzed by T-test, and the comparison among three or more groups was analyzed by one-way ANOVA. […] All data analysis was carried out with SPSS 17.0. p<0.05 was considered a significant difference.

CYP2C19 = biological target: T1, CYP2C19 (Homo sapiens, UniProt P33261); test: inhibition of CYP enzyme activity in human liver microsome, CYP2C19; format: in vitro ADME
T1 construct: in the assay of CYP enzyme activity in human liver microsome; from tissue; host or cells: human liver microsome
Description: The results of the compounds disclosed herein and the reference compound Poziotinib in the assay of CYP enzyme activity in human liver microsome were shown in the following table (Table 8).

T1 sequence (P33261 whole entry): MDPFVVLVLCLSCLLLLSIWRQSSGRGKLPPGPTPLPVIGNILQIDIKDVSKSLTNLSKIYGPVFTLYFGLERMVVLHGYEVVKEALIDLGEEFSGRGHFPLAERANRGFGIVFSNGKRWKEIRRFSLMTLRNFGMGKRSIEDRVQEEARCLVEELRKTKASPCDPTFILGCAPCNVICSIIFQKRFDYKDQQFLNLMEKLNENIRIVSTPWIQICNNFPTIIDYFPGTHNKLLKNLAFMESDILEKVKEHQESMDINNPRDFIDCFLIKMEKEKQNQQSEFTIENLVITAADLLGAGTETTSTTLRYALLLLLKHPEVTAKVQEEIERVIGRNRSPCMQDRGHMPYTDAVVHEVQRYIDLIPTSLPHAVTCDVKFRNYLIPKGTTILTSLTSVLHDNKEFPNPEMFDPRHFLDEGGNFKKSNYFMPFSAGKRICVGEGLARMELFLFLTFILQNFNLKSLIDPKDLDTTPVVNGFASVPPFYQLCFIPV

Structure (SMILES) | IC50 (NCI-N87 cell) [µM] | Tumor volume (mm3) (Day 28) ([1]; 0.4 mg/kg) | T/C (%) ([1]; 0.4 mg/kg) | TGI (%) ([1]; 0.4 mg/kg) | Tumor volume (mm3) (Day 28) ([1]; 0.8 mg/kg) | T/C (%) ([1]; 0.8 mg/kg) | TGI (%) ([1]; 0.8 mg/kg) | IC50 (CYP2C19) [µM] | inhibition of CYP enzyme CYP2C19 (CYP2C19)
C=CC(=O)N1[C@@H]2CC[C@H]1C[C@H](Oc1cc3c(Nc4ccc(Cl)c(Cl)c4F)ncnc3cc1OC)C2 [Example 8] | 0.00028 |  |  |  |  |  |  |  | 
C=CC(=O)N1CCC(Oc2cc3c(Nc4ccc(Cl)c(Cl)c4F)ncnc3cc2OC)CC1 [Poziotinib, reference compound] |  | 84 ± 9 | 13.42 | 115.81 | 28 ± 8 | 4.47 | 127.78 | 12 | 
C=CC(=O)N1[C@@H]2CC[C@H]1C[C@H](Nc1cc3c(Nc4ccc(Cl)c(Cl)c4F)ncnc3cc1OC)C2 [Example 38] | 0.00046 | 47 ± 13 | 7.51 | 123.72 | 15 ± 3 | 2.40 | 130.56 | 11 | comparable to that of the reference compound Poziotinib
